Like-named read-outs stand apart in the source and are kept apart here. One block for each substance: values may come before it.
Experiments:
natalizumab [1] = assay: Binding of purified phage clones to natalizumab-coated wells; conditions: individually amplified and purified phage clones
Method: Mimetope peptides were selected from phage display libraries, some of which contain cysteines flanking the peptide mimetope sequence to increase stability of the peptide through disulfide bond formation. After three rounds of selection with multiple phage display libraries, individual phage plaques were isolated and sequenced.
All of these unique phage clones were individually amplified and purified, and their ability to specifically bind natalizumab-coated wells was assessed. […] Selected peptides derived from validated phage clones were chemically synthesized with an N-terminal acetyl modification (in some cases), C-terminal biotin modification via a terminal lysine (all peptides), and a disulfide bridge between cysteines 2 and 10 or cysteines 8 and 16 by a contract peptide manufacturer, as shown in Table 2.

natalizumab [2] = conditions: human serum spiked with natalizumab, rituximab, atezolizumab, pembrolizumab, eculizumab
Method: Synthesized peptides were validated for specificity by using them as ELISA capture reagents on neutravidin-coated plates. Briefly, biotinylated peptides were coated on the wells at 100 ug/mL concentration in either tris buffered saline buffer (TBS) or water. […] Antibody that was captured by the peptides was subsequently detected using a goat anti-human IgG-Fc conjugated to horseradish peroxidase (HRP) combined with a colorimetric substrate. […] The percent of recovery was calculated as follow: calibrated concentration/nominal concentration×100.

natalizumab [3] = assay: Anti-idiotype ELISA versus VERITOPE ELISA on heat-inactivated natalizumab; type: binding; conditions: natalizumab heat-inactivated at 60° C.
natalizumab [4] = assay: Competition ELISA between natalizumab-specific VERITOPE and anti-idiotype; type: binding; conditions: capture reagent versus competitive reagent
Excerpt: In FIG. 11A natalizumab-specific VERITOPE™ is the capture reagent and anti-idiotype is the competitive reagent. In FIG. 11B, anti-idiotype is the capture reagent and natalizumab-specific VERITOPE™ is the competitive reagent.
FIGS. 10A and B illustrates a comparison of VERITOPE™ (FIG. 10A) and anti-idiotype (FIG. 10B) ELISA binding.

natalizumab [5] = conditions: 1,000 or 10,000 fold molar excess of peptide; Jeko-1 cells
Excerpt: (§1) Jeko-1 cells, expressing CD49d, were used as a model.
as §1

[6] = system: Jeko-1 cells, expressing CD49d; assay: Flow cytometry: binding of heat-inactivated natalizumab to Jeko-1 cells; type: cell-based; conditions: 60° C. for various periods of time; bivalent and arm-exchanged (bispecific) natalizumab
integrin = target: T1, integrin (Homo sapiens, UniProt P13612); conditions: at the end of 4 weeks, cited from earlier work
T1 construct: host or cells: cells of treated patients

Fc gamma receptors = conditions: like other IgG4 antibodies; cited from earlier work
complement = conditions: in vitro; cited from earlier work

specific binding to natalizumab-coated wells (natalizumab [1]): specific binding to natalizumab
Substance: ACPKNPNKFCGGG [SEQ ID NO: 4]

Substance: ACPKNPSKFCGGG{Lys(Biotin)} with Cys2-Cys10 bridge [NTZ-07-Bio]
selectivity for natalizumab over other therapeutic monoclonal antibodies (natalizumab [2]): selectively captures natalizumab in presence of other circulating human IgG

specific binding to natalizumab-coated wells (natalizumab [1]): specific binding to natalizumab
Substance: ACPMNESKFCGGG [SEQ ID NO: 1]

specific binding to natalizumab-coated wells (natalizumab [1]): specific binding to natalizumab
Substance: ACPSNPSKFCGGG [SEQ ID NO: 2]

Substance: Ac-ACPMNESKFCGGG{Lys(Biotin)} with Cys2-Cys10 bridge [NTZ-01-Bio]
ability of capture reagent to distinguish active and inactive drug (natalizumab [3]): selectively distinguishes & quantifies active drug
region of natalizumab bound (natalizumab [4]): bind to the same region of natalizumab, most likely the antigen binding site
inhibition of natalizumab binding to its cell surface target (natalizumab [5]): can inhibit binding of natalizumab to its cell surface target

specific binding to natalizumab-coated wells (natalizumab [1]): specific binding to natalizumab
Substance: IYAAYPPCPQNLSKFCRHSSSPGGGG [SEQ ID NO: 16]

specific binding to natalizumab-coated wells (natalizumab [1]): specific binding to natalizumab
Substance: QTLNHSWLHTFIGGG [SEQ ID NO: 13]

Substance: natalizumab
effect of heat-inactivation on binding to cellular target [6]: alters natalizumab binding to its cellular target
integrin saturation by natalizumab (integrin; Hyams et al. 2007, crohn disease in adolescents): less than 40%
integrin saturation by natalizumab (integrin; Miller et al. 2003, relapsing multiple sclerosis): 80%
binding to Fc gamma receptors (Fc gamma receptors): reduced binding to Fc gamma receptors
ability to fix complement (complement): lack of ability to fix complement

From patent US11680948B2 (ABREOS BIOSCIENCES, INC., priority 2016, dated 2023)
